Source: US20180185302A1, “METHODS FOR DOWNREGULATING APOBEC3B” (Regents of the University of Minnesota, priority 2015, published 2018)
“Also recorded” adds a separate entry of the source. Residues, ends and D or L forms follow the SMILES beside them. *: point of attachment. Cbz = O=C(OCc1ccccc1)*

Key:
[1] = tested on: APOBEC3B; experiment: inhibitor pretreatment before PMA-induced APOBEC3B upregulation in MCF10A cells (RT-qPCR); assay type: cell-based, human; conditions: for suppression of PMA-induced APOBEC3B mRNA induction: 30-minute pretreatment with inhibitor, then PMA 25 ng/mL six hours
Procedure: PMA is a well-known agonist of PKC, but it also affects other cellular processes. To determine whether APOBEC3B induction by PMA occurs through PKC signal transduction or an alternative mechanism, we leveraged a panel of existing PKC inhibitors that each vary with respect to class selectivity. MCF10A cells were pre-treated for 30 minutes with varying concentrations of the pan-PKC inhibitor Gö6983 (Gschwendt et al., FEBS Lett. 392:77-80, 1996) and then treated for six hours with PMA (25 ng/mL). […] As additional controls, MCF10A cells were pretreated in parallel with the phosphoinositol 3 kinase (PI3K) inhibitor, LY294002, and the mitogen-activated protein kinase kinase (MEK) inhibitor, U0126, prior to PMA induction (FIGS. 2B and 2C).
(§1) For induction experiments, 2.5×10^5 cells were plated in a 6-well plate 1 day prior to drug treatment. PMA was then added to the media and incubated at 37° C. with 5% CO2 for six hours unless otherwise indicated. Cells were harvested, RNA was extracted, and RT-qPCR was performed as previously reported (Refsland et al. 2010, Nucleic Acids Res 38:4274-4284). For experiments utilizing inhibitors, cells were pretreated with inhibitors 30 minutes prior to PMA induction (25 ng/mL). PMA (Thermo Fisher Scientific, Inc., Waltham, Mass.), cyclohexamide (Acros Organics, Thermo Fisher Scientific, Inc., Waltham, Mass.), Gö6983 (Cayman Chemical co., Ann Arbor, Mich.), LY294002 (EMD Chemicals, Merck KGaA, Darmstadt, Germany), U0126 (EMD Chemicals, Merck KGaA, Darmstadt, Germany), AEB071 (Medchemexpress, Monmouth Junction, N.J.), Gö6976 (Enzo Life Sciences, Inc., Farmingdale, N.Y.), BAY 11-7082 (R&D Systems, INc., Minneapolis, Minn.), and MG132 (Thermo Fisher Scientific, Inc., Waltham, Mass.) were stored as recommended. NIKi/Compound 31 was synthesized as described (Li et al., 2013, Bioorganic & Medicinal Chemistry Letters 23:1238-1244).

[2] = tested on: IKKβ (canonical) over IKKα (non-canonical); conditions: reported in vitro IC50 values (Podolin et al., 2005); cited from earlier work
[3] = tested on: TNFα; experiment: TNFα mRNA expression in PMA-treated MCF10A cells (RT-qPCR); assay type: cell-based, human; conditions: titration of inhibitor, compared with APOBEC3B inhibition
Procedure: FIG. 3. Non-canonical NFκB signaling is responsible for APOBEC3B upregulation by PMA. […] MCF10A cells were treated with PMA following a 30-minute pretreatment with the indicated concentrations of each inhibitor. APOBEC3B mRNA expression is reported as the mean of three independent RT-qPCR reactions normalized to TBP (error bars report SD from triplicate assays). (C) Histogram depicting NFκB subunit mRNA levels in MCF10A cells treated with PMA or vehicle control. Expression was determined by RNA-seq and is reported as FKPM and normalized to TBP. […] MCF10A cells were treated with PMA following treatment with varying concentrations of TPCA-1. TNFα (light) and APOBEC3B (dark) mRNA levels are reported as the mean of three independent RT-qPCR reactions normalized to TBP (error bars report SD from triplicate assays). The dotted lines denote previously reported in vitro IC50 values for IKKα and IKKβ inhibition by TPCA-1 (Podolin et al., 2005, J Pharmacol Exp Ther. 312:373-381). (E) Histogram showing the kinetics of NFKBIA upregulation PMA. MCF10A cells were treated with PMA for the indicated times and mRNA values were quantified as in FIG. 3A. […]
Canonical signaling is known to require IKKβ, whereas non-canonical NFκB signaling is strictly dependent on IKKα-catalyzed phosphorylation of p100. […] As an additional control, TNFα, which is regulated by the canonical pathway, was analyzed.

[4] = tested on: MCF-7 xenograft tumor; experiment: MCF-7 xenograft model for tamoxifen resistance; assay type: in vivo, mice
From the text: Human cancer cell lines, such as those listed above, and many others, upon engraftment into mice (e.g., subcutaneously, intraperotoneally, or otherwise), provide model systems for human tumor evolution, heterogeneity, and drug resistance. For instance, the estrogen-receptor positive breast cancer cell line MCF7L is a model for endocrine therapy and resistance.
The MCF-7 system may be adapted for evaluating APOBEC3 mutagenesis and drug resistance by creating derivative lines expressing low APOBEC3B (e.g., shRNA transduced) and high APOBEC3B (empty vector transduced) using lentivirus transduction followed by selection with 1 μg/ml puromycin for one week (Burns et al., 2013, Nature 494:366-370) and determine whether endogenous APOBEC3B contributes to the development of tamoxifen resistance. Five-million engineered cells are injected subcutaneously (xenografted) into athymic/ovariectomized nude-Foxnlnu (4-5 weeks old, The Jackson Laboratory, Bar Harbor, Me.). Each animal's drinking water is supplemented with 1 μM estradiol to provide continuous hormonal stimulation. The xenografted cells form large tumors within 150 days post-engraftment and depleting endogenous APOBEC3B causes a modest delay in tumor growth (dark square versus dark circle symbols in FIG. 8).

[5] = tested on: APOBEC3B; experiment: PMA induction of APOBEC3B mRNA in MCF10A cells (RT-qPCR); assay type: cell-based, human; conditions: 10 μg/mL cyclohexamide with PMA
Procedure: A panel of immortalized normal human epithelial cells lines and breast cancer cell lines was treated with PMA or equal amounts of DMSO as a negative control, and previously validated reverse transcription quantitative PCR (RT-qPCR) assays were used to measure mRNA levels of all eleven human APOBEC family members. APOBEC3B mRNA was induced specifically by PMA treatment of several lines including the immortalized normal breast epithelial cell line MCF10A (FIG. 1A and FIG. 6). Under standard cell culture conditions, MCF10A expresses low levels of APOBEC3B and APOBEC3F, even lower levels of APOBEC3G and APOBEC3H, high levels of APOBEC3C, and undetectable levels of all other APOBEC family members.
APOBEC3B was induced with as little as 1 ng/mL PMA, and its induction was dose responsive and near maximal at 25 ng/mL PMA (FIG. 1B, histogram). APOBEC3B mRNA levels correlated with a rise in steady-state protein levels as measured by immunoblotting with a rabbit anti-APOBEC3B monoclonal antibody (described in U.S. Provisional Patent Application No. 62/186,109. filed Jun. 29, 2015) and with enzymatic activity as measured by a gel-based single-stranded DNA cytosine deamination assay (FIG. 1B). […] APOBEC3B protein and activity levels lagged shortly behind mRNA levels and persisted through the duration of the time course (FIG. 1C, immunoblot and polyacrylamide gel). APOBEC3B upregulation may be a direct result of signal transduction as the kinetics of upregulation were not affected by simultaneously treating cells with the protein translation inhibitor cyclohexamide (FIG. 1D).
as §1

[6] = tested on: MCF10A cells; experiment: morphology and viability of MCF10A cells under inhibitor; assay type: cell-based, human; conditions: low concentrations of Gö6983 (5 μM range), data not shown
Procedure: PMA is a well-known agonist of PKC, but it also affects other cellular processes. To determine whether APOBEC3B induction by PMA occurs through PKC signal transduction or an alternative mechanism, we leveraged a panel of existing PKC inhibitors that each vary with respect to class selectivity. MCF10A cells were pre-treated for 30 minutes with varying concentrations of the pan-PKC inhibitor Gö6983 (Gschwendt et al., FEBS Lett. 392:77-80, 1996) and then treated for six hours with PMA (25 ng/mL). […] APOBEC3B was suppressed to background levels with 5 μM Gö6983, as well as higher concentrations (FIG. 2A). […] As additional controls, MCF10A cells were pretreated in parallel with the phosphoinositol 3 kinase (PI3K) inhibitor, LY294002, and the mitogen-activated protein kinase kinase (MEK) inhibitor, U0126, prior to PMA induction (FIGS. 2B and 2C).

SMILES: NC(=O)Nc1sc(-c2ccc(F)cc2)cc1C(N)=O [TPCA-1]
- suppression of PMA-induced APOBEC3B mRNA induction [1]: near the IC50 for IKKα, not IKKβ; also recorded: inhibited closer to the reported IC50 of IKKα
- selectivity for IKKβ (canonical) over IKKα (non-canonical) [2]: 22 fold
- inhibition of TNFα expression [3]: inhibited by much lower concentrations

SMILES: CC/C(=C(\c1ccccc1)c1ccc(OCCN(C)C)cc1)c1ccccc1 [tamoxifen]
- tumor growth of MCF-7 derivative lines ([4]; 500 μg 5 days/week subcutaneous injection, APOBEC3B high and low lines, mice): arrested the growth of both derivative lines for several months
- development of resistance, cells expressing high levels of APOBEC3B ([4]; 500 μg 5 days/week subcutaneous, year-long experiment): invariably developed resistance
- development of resistance, APOBEC3B low cell masses ([4]; 500 μg 5 days/week subcutaneous, year-long experiment, n=5 animals/condition): only one of the APOBEC3B low cell masses became resistant

SMILES: C[C@@H]1C[C@@H]([C@H](O)CC2CC(=O)NC(=O)C2)C(=O)[C@@H](C)C1 [cyclohexamide]
- effect on kinetics of PMA-induced APOBEC3B upregulation [5]: not affected

SMILES: Cc1ccc(S(=O)(=O)/C=C/C#N)cc1 [BAY 11-7082]
- suppression of PMA-induced APOBEC3B mRNA induction [1]: dose responsive inhibition; also recorded: strong dose-responsive drops

SMILES: CC(C)C[C@@H](C=O)NC(=O)[C@H](CC(C)C)NC(=O)[C@H](CC(C)C)NC(=O)OCc1ccccc1 [MG132] (Cbz-Leu-Leu-Leu-aldehyde)
- suppression of PMA-induced APOBEC3B mRNA induction [1]: dose responsive inhibition; also recorded: decreased in a dose dependent manner

SMILES: COc1ccc2c(c1)c(C1=C(c3c[nH]c4ccccc34)C(=O)NC1=O)cn2CCCN(C)C [Gö6983]
- suppression of PMA-induced APOBEC3B mRNA induction [1]: inhibited; also recorded: dose responsive suppression
- concentration that suppressed APOBEC3B to background levels ([1]; 30-minute pretreatment, PMA 25 ng/mL six hours): 5 µM
- morphological defects or viability issues [6]: No morphological defects or viability issues

SMILES: CN(C)CCCn1cc(C2=C(c3c[nH]c4ccccc34)C(=O)NC2=O)c2ccccc21 [BIM-1, bisindolylmaleimide-1]
- suppression of PMA-induced APOBEC3B mRNA induction [1]: inhibited; also recorded: nearly identical dose dependent suppression

SMILES: N#CC(=C(/N)Sc1ccccc1N)/C(C#N)=C(\N)Sc1ccccc1N [U0126]
- suppression of PMA-induced APOBEC3B mRNA induction [1]: not and no suppression

SMILES: Cn1c2ccccc2c2c3c(c4c5ccccc5n(CCC#N)c4c21)CNC3=O [Gö6976]
- suppression of PMA-induced APOBEC3B mRNA induction [1]: inhibited
